Assay results: article PMC11062894, “Protein-based bandpass filters for controlling cellular signaling with chemical inputs” (Nature Chemical Biology, 2023)
Values joined by “and” are separate entries in the source; they are usually repeats but may differ in a detail not shown here. Equal values may be shown once.

Tested on: GEMS receptors with CBPA11 (BclXL–LD3 and BclXLhigh variants), STAT3-driven SEAP in HEK293T cells
Assay: GEMS SEAP reporter assay, CBPA11 (BclXLhigh, LD3-v and BclXL-v variants) with A-1155463
Assay type: cell-based
Set-up: key to Raw data (SEAP) / SEAP, replicate values / Raw data of Figure 5b / Raw data Figure 5e / Raw data of Independent repeat of CBPA11-v1 vs CBPA11-v1-LD3v3 / Raw data of Independent repeat of CBPA11-v3 vs CBPA11-v3-LD3v3 / Raw data of Figure 5b, CBPA11-v1-LD3v3 (SEAP reporter raw value, single replicate) / Raw data of Figure 5b, CBPA11-v1 (SEAP reporter raw value, single replicate): SEAP activity in U/L in culture supernatant
Text: To rationally design a CBP responding to a chemical input, we used BclXL as the druglow receptor, LD3 as the designed binder and a designed BclXL variant as the drughigh receptor (referred to as BclXLhigh) to construct a CBP responsive to BclXL inhibitors (Fig. 4a). To design BclXLhigh, we used a multistate design computational protocol described elsewhere[26] […] Thus, BclXLhigh-v(1–3) were chosen as the functional drughigh receptors, resulting in three A-1155463-controlled CBPs (referred to as CBPA11-v(1–3)) (Fig. 4c–e).
HEK293T cells were seeded in a 96-well plate 24 h before transfection. The transfection mix in each well consisted of 3 ng of constitutive human CMV promoter driven mammalian STAT3 expression vector (PhCMV-STAT3-pA), 30 ng of STAT3-induced reporter expression (OStat3-PhCMVmin-SEAP-pA) and 50 ng of expression vectors for each GEMS receptor chain (PSV40-IgK-(drughigh receptor)-EpoRm-IL-6RBm-pA and PSV40-IgK-(druglow receptor-GGGGSX3-LD3)-EpoRm-IL-6RBm-pA). For the specific drughigh receptor and druglow receptor used in the different cellular assays, they are indicated as wild type or with mutations. Then, plasmid DNA was mixed with 50 μl opti-MEM (Thermo Fisher) and 600 ng of polyethyleneimine (Polysciences, catalog no. 24765-1). For drug treatment experiments, drugs were added 12 h post-transfection and incubated with cells for 24 h before the SEAP reporter detection assay.
SEAP activity (U l^−1) in cell culture supernatants was quantified by kinetic measurements at 405 nm (1 minute per measurement for 30 cycles) of absorbance increase due to phosphatase-mediated hydrolysis of para-nitrophenyl phosphate (pNPP).
Binding affinities of SPR drug competition assays were calculated using three-parameter nonlinear regression in GraphPad Prism (v.8.3.0). Representative data of cell assays are presented as individual values and mean values (bars). n = 3 refers to biological replicates. All IC50 or EC50 values of cell assays reported were calculated using four-parameter nonlinear regression ± s.d. Bandpass features of cutoff concentrations and Bandwidth90% were estimated based on the curve fitted using bell-shaped curve nonlinear regression in GraphPad Prism (v.8.3.0). […]
Supplementary Figure 4: Design, screening and validation of BclXLhigh variants. a) Screening of BclXLhigh variants in the GEMS platform. […]
Dissociation constant measurement of BclXLhigh-v(1-3) and LD3. Equilibrium curves are fitted using […]
BclXLhigh-v1 (purple), BclXLhigh-v2 (blue), […]
a) Bcl2high-based bandpass filter designs were developed and to respond to different concentrations of […]
corresponding inhibitor. c) Screening of Bcl2high-based bandpass filter variants in the GEMS platform.
The designed binder LD3 was fused to the druglow-receptor (PSV40-IgK-Bcl2-LD3-EpoRm-IL-6RBm-pA) in one EpoR chain and Bcl2high variants with the insensitive Bcl2 (iBcl2) as control in the other EpoR chain (PSV40-IgK-Bcl2high-EpoRm-IL-6RBm-pA). HEK293T cells were transfected with indicated […]
the mean of six biological replicates ± s.d., overlaid with a scatter dot plot of the original data points.
(1 picture or pasted object on this page, not shown here)
Supplementary Figure 6: Binding affinities and drug resistances of Bcl2high-v(2,4,5) assessed by […]
a) Measurement of dissociation constants for Bcl2high-v(2,4,5) and LD3 interactions. Equilibrium curves […]
Bcl2high-v(2,4,5) measured by SPR. 5 μM of Bcl2 or indicated variants were mixed with 10 μM of […]
Bcl2high-v2 (red), Bcl2high-v4
Supplementary Figure 7: Screening of LD3 variants in CBPA11-v(1-3) and raw data of CBPA11-v(1,3) with LD3-v3 variant. a-c) Screening of LD3 and LD3-v(1-3) variants in complex with BclXL for more sensitive CBPA11-v1 (a), CBPA11-v2 (b), CBPA11-v3 (c) in the GEMS platform. The LD3 variants replaced the role of LD3 (PSV40-IgK-BclXL-LD3-v(1-3)-EpoRm-IL-6RBm-pA) in one EpoR chain and BclXLhigh-v(1-3) in the other EpoR chain (PSV40-IgK-BclXLhigh-V(1-3)-EpoRm-IL-6RBm-pA). HEK293T cells were transfected with […]

CN(C)CC#Cc1ccc(OCCCc2sc(N3CCc4cccc(C(=O)Nc5nc6ccccc6s5)c4C3)nc2C(=O)O)c(F)c1 [A-1155463]
Raw data of Figure 5b, CBPA11-v1-LD3v3 (SEAP reporter raw value, single replicate) (A-1155463 10000 nM, construct CBPA11-v1-LD3v3, three replicate columns): 23.9254 and 24.8005 and 21.4423 | Raw data of Figure 5b, CBPA11-v1 (SEAP reporter raw value, single replicate) (A-1155463 10000 nM, construct CBPA11-v1, three replicate columns): 69.4522 and 75.5808 and 84.1281 | Raw data of Independent repeat of CBPA11-v1 vs CBPA11-v1-LD3v3 (CBPA11-v1, A-1155463 0.01 nM): 21.5154 and 21.2395 and 24.0629 | Normalized data Figure 5e (CBPA11-v1, A-1155463 1 nM): 6.4824 and 7.053 and 8.837 | Normalized data of Figure 5b (CBPA11-v1, A-1155463 1 nM): 1.402 and 1.595 and 1.731 | Raw data of Figure 5b (CBPA11-v1, A-1155463 1 nM): 11.9307 and 13.3631 and 14.4518 | Raw data of Independent repeat of CBPA11-v1 vs CBPA11-v1-LD3v3 (CBPA11-v1, A-1155463 1 nM): 71.2806 and 66.4229 and 63.7452 | Raw data of Independent repeat of CBPA11-v1 vs CBPA11-v1-LD3v3 (CBPA11-v1, A-1155463 3.16 nM): 80.0965 and 82.8427 and 80.4448 | Normalized data Figure 5e (CBPA11-v1, A-1155463 3.18 nM): 7.202 and 10.0096 and 11.7189 | Normalized data Figure 5e (CBPA11-v1, A-1155463 10 nM): 46.8388 and 51.1661 and 51.2149 | Normalized data of Figure 5b (CBPA11-v1, A-1155463 10 nM): 14.5535 and 13.2638 and 13.0086 | Raw data of Figure 5b (CBPA11-v1, A-1155463 10 nM): 123.839 and 111.135 and 108.599 | Raw data of Independent repeat of CBPA11-v1 vs CBPA11-v1-LD3v3 (CBPA11-v1, A-1155463 10 nM): 462.474 and 463.658 and 418.386 | Raw data of Independent repeat of CBPA11-v1 vs CBPA11-v1-LD3v3 (CBPA11-v1, A-1155463 31.6 nM): 571.289 and 570.216 and 457.441 | Normalized data Figure 5e (CBPA11-v1, A-1155463 31.8 nM): 63.7218 and 71.158 and 71.088 | Normalized data of Figure 5b (CBPA11-v1, A-1155463 31.8 nM): 45.8074 and 33.2331 and 44.7698 | Raw data of Figure 5b (CBPA11-v1, A-1155463 31.8 nM): 389.784 and 278.454 and 373.749 | Normalized data Figure 5e (CBPA11-v1, A-1155463 100 nM): 98.9083 and 100 | Normalized data of Figure 5b (CBPA11-v1, A-1155463 100 nM): 66.3164 and 72.6195 and 72.7718 | Raw data of Figure 5b (CBPA11-v1, A-1155463 100 nM): 564.299 and 608.466 and 607.516 | Raw data of Independent repeat of CBPA11-v1 vs CBPA11-v1-LD3v3 (CBPA11-v1, A-1155463 100 nM): 770.33 and 757.162 and 752.74 | Raw data of Independent repeat of CBPA11-v1 vs CBPA11-v1-LD3v3 (CBPA11-v1, A-1155463 316 nM): 692.583 and 694.97 and 762.999 | Normalized data Figure 5e (CBPA11-v1, A-1155463 318 nM): 100 and 89.6838 and 88.8002 | Normalized data of Figure 5b (CBPA11-v1, A-1155463 318 nM): 100 | Raw data of Figure 5b (CBPA11-v1, A-1155463 318 nM): 850.92 and 837.883 and 834.824 | Normalized data Figure 5e (CBPA11-v1, A-1155463 1000 nM): 87.8736 and 79.7319 and 71.766 | Normalized data of Figure 5b (CBPA11-v1, A-1155463 1000 nM): 69.8009 and 76.8483 and 84.4115 | Raw data of Figure 5b (CBPA11-v1, A-1155463 1000 nM): 593.95 and 643.898 and 704.687 | Raw data of Independent repeat of CBPA11-v1 vs CBPA11-v1-LD3v3 (CBPA11-v1, A-1155463 1000 nM): 543.865 and 540.678 and 577.914 | Raw data of Independent repeat of CBPA11-v1 vs CBPA11-v1-LD3v3 (CBPA11-v1, A-1155463 3160 nM): 413.782 and 413.648 and 344.2 | Normalized data Figure 5e (CBPA11-v1, A-1155463 3180 nM): 51.7606 and 52.3661 and 51.7462 | Normalized data of Figure 5b (CBPA11-v1, A-1155463 3180 nM): 53.3499 and 60.9077 and 57.5176 | Raw data of Figure 5b (CBPA11-v1, A-1155463 3180 nM): 453.965 and 510.335 and 480.171 | Normalized data Figure 5e (CBPA11-v1, A-1155463 10000 nM): 19.9955 and 19.9571 and 22.5422 | Normalized data of Figure 5b (CBPA11-v1, A-1155463 10000 nM): 33.8321 and 33.8547 and 35.5742 | Raw data of Figure 5b (CBPA11-v1, A-1155463 10000 nM): 287.884 and 283.663 and 296.982 | Raw data of Independent repeat of CBPA11-v1 vs CBPA11-v1-LD3v3 (CBPA11-v1, A-1155463 10000 nM): 129.42 and 154.739 and 117.07 | Normalized data Figure 5e (CBPA11-v1-BclXLv2, A-1155463 1 nM): 21.782 and 18.7434 and 19.0174 | Normalized data Figure 5e (CBPA11-v1-BclXLv2, A-1155463 3.18 nM): 30.7821 and 38.1789 and 36.4445 | Normalized data Figure 5e (CBPA11-v1-BclXLv2, A-1155463 10 nM): 85.4791 and 79.6848 and 85.0591 | Normalized data Figure 5e (CBPA11-v1-BclXLv2, A-1155463 31.8 nM): 84.8971 and 95.7911 and 86.6879 | Normalized data Figure 5e (CBPA11-v1-BclXLv2, A-1155463 100 nM): 100 and 90.6768 | Normalized data Figure 5e (CBPA11-v1-BclXLv2, A-1155463 318 nM): 91.2979 and 98.815 and 100 | Normalized data Figure 5e (CBPA11-v1-BclXLv2, A-1155463 1000 nM): 86.9949 and 91.0394 and 83.6084 | Normalized data Figure 5e (CBPA11-v1-BclXLv2, A-1155463 3180 nM): 69.3324 and 72.9533 and 70.3736 | Normalized data Figure 5e (CBPA11-v1-BclXLv2, A-1155463 10000 nM): 38.0946 and 36.2941 and 35.5843 | Raw data of Independent repeat of CBPA11-v1 vs CBPA11-v1-LD3v3 (CBPA11-v1-LD3v3, A-1155463 0.01 nM): 17.2788 and 15.3201 and 15.4842
